# Source: US20030082610A1, “Use of a gene change in gene GNB3 coding for the B3 subunit of human G proteins” (SniP Biotech GmbH & Co. KG, priority 2001, published 2003)
# Assay: placebo-controlled clinical study on the gene-dependent (GNB3 C825T) effectiveness of Sibutramine for weight reduction
# Assay type: in vivo, human
# Protocol: A placebo-controlled clinical study on the gene-dependent effectiveness of Sibutramine was carried out. This study included 105 patients with a body-mass index between 30 and 40 kg/m^2. All patients received a reduced calorie diet of maximum 1500-2000 kcal per day. Moreover the patients were urged to increase their physical activity and for example to walk at least 30 minutes a day at an increased pace. Forty nine patients received 15 mg Sibutramine daily to support weight reduction, while 56 patients received a placebo. The therapy was continued for 54 weeks. The body weight and body size of all patients were known at the beginning of the study and after 54 weeks of therapy. The end points of the study were the weight loss after 54 weeks, the number of patients with at least 5% reduction in body weight, and the number of patients with at least 10% reduction of body weight.
# From all patients, DNA was isolated from a blood sample in order to analyze the C825T allele status in gene GNB3. Genotyping was done by means of PCR reaction and restriction analysis in processes familiar to one skilled in the area. The study results are shown in the graph of FIG. 1. In the placebo group, the average weight reduction was 5.3±7.3 kg, while the weight loss in the group treated with Sibutramine was 10.0±8.7 kg. This difference was statistically significant (p=0.036). FIG. 1 illustrates the genotype-dependent weight loss. In the placebo group, the average weight reduction was 9.1±2.8 kg for the TT genotype, 7.4±1.5 kg for the TC genotype, but only 2.8±1.1 kg for the CC genotype. This difference was statistically significant (One-way ANOVA, P=0.03).
smiles,measurement,setting,value
CC(C)CC(N(C)C)C1(c2ccc(Cl)cc2)CCC1 (stereo not shown) [Sibutramine],"odds ratio (OR) for a 5% weight loss, Sibutramine compared to placebo","825T allele carriers, 54 weeks, p=0.26, not significant",1.8
same,"odds ratio (OR) for a 10% weight loss, Sibutramine compared to placebo","825T allele carriers, 54 weeks, p=0.4",1.6
same,weight loss,"CC genotype (825C allele carrier), 15 mg Sibutramine daily, 54 weeks",9.9 kg
same,"odds ratio (OR) for a 5% weight reduction, long-term, Sibutramine versus placebo","CC genotype, re-examined 2 years after the end of the study, p=0.0358",4.4
same,further weight loss compared to placebo,"TT/TC genotype (825T allele carriers), 15 mg Sibutramine daily, 54 weeks",no further weight loss compared to the placebo
same,weight loss (average weight reduction),"all genotypes, patients BMI 30-40 kg/m^2, 15 mg Sibutramine daily plus reduced calorie diet and physical activity, after 54 weeks",10.0 ± 8.7 kg
same,effect of Sibutramine compared to placebo on weight loss,carriers of the 3882A allele and the 5249G allele,same favorable results as for the 825C allele carrier
same,"odds ratio (OR) for a 5% weight reduction, long-term, Sibutramine versus placebo","genotype not printed (contrasted with CC), 2 years after the end of the study, p 0.2139, not significant",2.333
same,"odds ratio (OR) for losing more than 5% body weight, Sibutramine compared to placebo","homozygotic 825C allele carriers (CC genotype), 54 weeks, p 0.0002",12.0
same,"odds ratio (OR) for the 10% weight reduction, Sibutramine compared to placebo","homozygotic 825C allele carriers (CC genotype), 54 weeks, p 0.0028",9.69
